Data published in the NIST ThermoML archive (doi:10.1021/je100687x).

Experiment: xn = mol fraction of the nth substance listed
Settings: 101 kPa, Liquid; for electrical conductivity: Crison GLP 31+ conductivimeter

CCCCCCCC[n+]1ccn(C)c1.F[B-](F)(F)F [1-methyl-3-octylimidazolium tetrafluoroborate] + CCO
Settings	electrical conductivity [S/m]	viscosity [mPa·s]
288.15 K, x2 = 0	–	686
288.15 K, x2 = 0.0891	–	428.3
288.15 K, x2 = 0.1902	–	244.7
288.15 K, x2 = 0.2927	–	141
288.15 K, x2 = 0.3914	–	73.44
288.15 K, x2 = 0.4911	–	45.24
288.15 K, x2 = 0.5938	–	26.02
288.15 K, x2 = 0.6979	–	14.53
288.15 K, x2 = 0.798	–	7.219
288.15 K, x2 = 0.9002	–	3.499
298.15 K, x2 = 0	0.069	337.4
298.15 K, x2 = 0.0891	–	224.8
298.15 K, x2 = 0.1236	0.108	–
298.15 K, x2 = 0.183	0.143	–
298.15 K, x2 = 0.1902	–	140.9
298.15 K, x2 = 0.2395	0.191	–
298.15 K, x2 = 0.2898	0.239	–
298.15 K, x2 = 0.2927	–	83.3
298.15 K, x2 = 0.3359	0.291	–
298.15 K, x2 = 0.3914	–	46.35
298.15 K, x2 = 0.4147	0.396	–
298.15 K, x2 = 0.4783	0.5	–
298.15 K, x2 = 0.4911	–	29.85
298.15 K, x2 = 0.5316	0.59	–
298.15 K, x2 = 0.5759	0.672	–
298.15 K, x2 = 0.5938	–	17.84
298.15 K, x2 = 0.6135	0.737	–
298.15 K, x2 = 0.6455	0.786	–
298.15 K, x2 = 0.6799	0.834	–
298.15 K, x2 = 0.6979	–	10.39
298.15 K, x2 = 0.7089	0.872	–
298.15 K, x2 = 0.7381	0.911	–
298.15 K, x2 = 0.7667	0.918	–
298.15 K, x2 = 0.7922	0.926	–
298.15 K, x2 = 0.798	–	5.362
298.15 K, x2 = 0.8138	0.92	–
298.15 K, x2 = 0.832	0.903	–
298.15 K, x2 = 0.8472	0.882	–
298.15 K, x2 = 0.8663	0.844	–
298.15 K, x2 = 0.8814	0.8	–
298.15 K, x2 = 0.8938	0.762	–
298.15 K, x2 = 0.9002	–	2.764
298.15 K, x2 = 0.9087	0.696	–
298.15 K, x2 = 0.9197	0.639	–
298.15 K, x2 = 0.9307	0.583	–
298.15 K, x2 = 0.9409	0.526	–
298.15 K, x2 = 0.9502	0.454	–
298.15 K, x2 = 0.9586	0.393	–
298.15 K, x2 = 0.9692	0.304	–
298.15 K, x2 = 0.9771	0.239	–
298.15 K, x2 = 0.9851	0.155	–
298.15 K, x2 = 0.9915	0.0924	–
308.15 K, x2 = 0	–	187.7
308.15 K, x2 = 0.0891	–	132.1
308.15 K, x2 = 0.1902	–	85.86
308.15 K, x2 = 0.2927	–	53.62
308.15 K, x2 = 0.3914	–	31.24
308.15 K, x2 = 0.4911	–	20.79
308.15 K, x2 = 0.5938	–	12.87
308.15 K, x2 = 0.6979	–	7.756
308.15 K, x2 = 0.798	–	4.135
308.15 K, x2 = 0.9002	–	2.206
318.15 K, x2 = 0	–	112.1
318.15 K, x2 = 0.0891	–	81.45
318.15 K, x2 = 0.1902	–	56.18
318.15 K, x2 = 0.2927	–	36.49
318.15 K, x2 = 0.3914	–	22.1
318.15 K, x2 = 0.4911	–	15.44
318.15 K, x2 = 0.5938	–	9.671
318.15 K, x2 = 0.6979	–	6.015
318.15 K, x2 = 0.798	–	3.283
318.15 K, x2 = 0.9002	–	1.802
